Experimental data: ChEMBL document CHEMBL6153051, “Synthesis, biological evaluation and validation of IMB-881 derivatives as anti-Gram-negative bacterial agents” (Bioorg Med Chem, 2025)
Values after ≈ are worked out from the molar mass of the structure shown. Active and inactive are the calls of the source. No cut-off for these calls is given here.

What was measured:
[1] = Cytotoxicity against green monkey Vero cells incubated for 48 hrs by CCK-8 assay; assay type: toxicity, cell-based; conditions: green monkey (Chlorocebus sabaeus)
[2] = test system: Escherichia coli; test: Antibacterial activity against multi-drug resistant Escherichia coli 5 clinical isolate assessed as bacterial growth inhibition in presence of CAMHB medium by broth microdilution method; assay type: functional
[3] = test system: Klebsiella pneumoniae; test: Antibacterial activity against Klebsiella pneumoniae ATCC […] assessed as bacterial growth inhibition in presence of CAMHB medium by broth microdilution method; assay type: functional
[4] = test system: Acinetobacter baumannii; test: Antibacterial activity against multi-drug resistant Acinetobacter baumannii 4 clinical isolate assessed as bacterial growth inhibition in presence of CAMHB medium by broth microdilution method; assay type: functional
[5] = test system: Acinetobacter baumannii; test: Antibacterial activity against multi-drug resistant Acinetobacter baumannii 2 clinical isolate assessed as bacterial growth inhibition in presence of CAMHB medium by broth microdilution method; assay type: functional
[6] = test system: Escherichia coli; test: Antibacterial activity against multi-drug resistant Escherichia coli 4 clinical isolate assessed as bacterial growth inhibition in presence of CAMHB medium by broth microdilution method; assay type: functional
[7] = Selectivity index, ratio of MIC for antimicrobial activity against yeast AH109 expressing T/53 to MIC for inhibition of LptA /LptC (unknown origin) interaction expressed in yeast AH109
[8] = test system: Acinetobacter baumannii; test: Antibacterial activity against multi-drug resistant Acinetobacter baumannii 1 clinical isolate assessed as bacterial growth inhibition in presence of CAMHB medium by broth microdilution method; assay type: functional
[9] = test system: Escherichia coli; test: Induction of morphological changes in Escherichia coli ATCC 25922 assessed as cell elongation in presence of LB medium measured after 1 to 3 hrs by crystal violet staining based light microscopic analysis; assay type: functional, organism-based; conditions: time 1-3 hrs
[10] = test system: Acinetobacter baumannii; test: Antibacterial activity against multi-drug resistant Acinetobacter baumannii 5 clinical isolate assessed as bacterial growth inhibition in presence of CAMHB medium by broth microdilution method; assay type: functional
[11] = test system: Escherichia coli; test: Antibacterial activity against Escherichia coli ATCC 25922 infected in Galleria mellonella assessed as increase in larvae survival rate measured upto 96 hrs; assay type: functional, organism-based; conditions: dose 1.25-10 mg/kg
[12] = Inhibition of LptA /LptC (unknown origin) interaction expressed in yeast AH109 assessed as growth inhibition incubated for 48 hrs
[13] = test system: Acinetobacter baumannii; test: Antibacterial activity against multi-drug resistant Acinetobacter baumannii 3 clinical isolate assessed as bacterial growth inhibition in presence of CAMHB medium by broth microdilution method; assay type: functional
[14] = test system: Escherichia coli; test: Antibacterial activity against multi-drug resistant Escherichia coli 1 clinical isolate assessed as bacterial growth inhibition in presence of CAMHB medium by broth microdilution method; assay type: functional
[15] = test system: Escherichia coli; test: Antibacterial activity against multi-drug resistant Escherichia coli 3 clinical isolate assessed as bacterial growth inhibition in presence of CAMHB medium by broth microdilution method; assay type: functional
[16] = Binding affinity to His-tagged LptA (unknown origin) assessed as dissociation constant incubated for 60 to 120 s by BLI analysis
[17] = test system: Escherichia coli; test: Antibacterial activity against multi-drug resistant Escherichia coli 2 clinical isolate assessed as bacterial growth inhibition in presence of CAMHB medium by broth microdilution method; assay type: functional
[18] = test system: Escherichia coli; test: Induction of outer membrane damage in Escherichia coli ATCC 25922 assessed as increase in EtBr fluorescence intensity in presence of LB medium incubated for 12 hrs by fluorescence plate-reader analysis; assay type: functional, organism-based
[19] = test system: Escherichia coli; test: Antibacterial activity against ESBL(+) producing Escherichia coli ATCC 35218 assessed as bacterial growth inhibition in presence of CAMHB medium by broth microdilution method; assay type: functional
[20] = test system: Escherichia coli; test: Induction of morphological changes in Escherichia coli ATCC 25922 assessed as appearance of incomplete outer membrane in presence of LB medium incubated for 12 hrs by transmission electron microscopic analysis; assay type: functional, organism-based
[21] = test system: Escherichia coli; test: Antibacterial activity against Escherichia coli ATCC 25922 assessed as bacterial growth inhibition in presence of CAMHB medium by broth microdilution method; assay type: functional
[22] = test system: Escherichia coli; test: Induction of morphological changes in Escherichia coli ATCC 25922 assessed as appearance of filamentous cell in presence of LB medium measured after 1 to 3 hrs by crystal violet staining based light microscopic analysis; assay type: functional, organism-based; conditions: time 1-3 hrs
[23] = test system: Acinetobacter baumannii; test: Antibacterial activity against Acinetobacter baumannii ATCC 19606 assessed as bacterial growth inhibition in presence of CAMHB medium by broth microdilution method; assay type: functional
[24] = test system: Escherichia coli; test: Antibacterial activity against Escherichia coli ATCC 25922 infected in Galleria mellonella assessed as increase in larvae survival rate at 10 mg/kg measured after 6 days post-inoculation relative to control; assay type: functional; conditions: ATCC 25922, 144 h, time 6 day
[25] = Cytotoxicity against dog MDCK cells incubated for 48 hrs by CCK-8 assay; assay type: toxicity, cell-based; conditions: dog (Canis lupus familiaris)
[26] = test system: Saccharomyces cerevisiae; test: Antimicrobial activity against yeast AH109 expressing T/53 assessed as growth inhibition incubated for 48 hrs; assay type: functional
[27] = test system: Escherichia coli; test: Antibacterial activity against Escherichia coli ATCC 25922 infected in Galleria mellonella assessed as increase in larvae survival rate at 1.25 mg/kg measured upto 96 hrs relative to control; assay type: functional
[28] = test system: Pseudomonas aeruginosa; test: Antibacterial activity against Pseudomonas aeruginosa PAO1 assessed as bacterial growth inhibition in presence of CAMHB medium by broth microdilution method; assay type: functional

SMILES	IC50 at 48 h [1] [µg/mL]	MIC [2] [µg/mL]	MIC [3] [µg/mL]	MIC [4] [µg/mL]	MIC [5] [µg/mL]	MIC [6] [µg/mL]	Selectivity Index [7]	MIC [8] [µg/mL]	MIC [10] [µg/mL]	MIC [12] [µg/mL]	MIC [13] [µg/mL]	MIC [14] [µg/mL]	MIC [15] [µg/mL]	Kd [16] [nM]	MIC [17] [µg/mL]	MIC [19] [µg/mL]	MIC [21] [µg/mL]	MIC [23] [µg/mL]	IC50 at 48 h [25] [µg/mL]	MIC [28] [µg/mL]	also measured
Clc1cc2c(c3ncccc13)OCN(CCCc1ccccc1)C2	> 50	50	100	12.5	12.5	50	4	6.25	6.25	6.25 (≈ 18.4 µM)	12.5	50	50	32.2	50	25	6.25	3.12	43.8 (≈ 129 µM)	50	Activity [9]: Active; Activity [11]: Dose-dependent-effect; Activity [18]: Dose-dependent-effect; Activity [20]: Active; Activity [22]: Active; survival at 10 mg/kg [24]: 70%; MIC [26]: 25 µg/mL (≈ 73.8 µM); survival at 1.25 mg/kg [27]: 60%
Clc1cc2c(c3ncccc13)OCN(CCc1ccccc1)C2	14.3 (≈ 44.2 µM)	50	100	100	100	50	2	100	100	12.5 (≈ 38.5 µM)	100	50	50	1.49	50	> 100	6.25	3.12	7.24 (≈ 22.3 µM)	50	MIC [26]: 25 µg/mL (≈ 77 µM)
Fc1cc2c(c3ncccc13)OCN(CCc1ccc(Cl)cc1)C2	> 50	50	50	100	50	50	–	100	100	–	100	50	50	–	50	25	6.25	25	29.2 (≈ 85.2 µM)	100	–
Clc1ccc(CN2COc3c(cc(Cl)c4cccnc34)C2)cc1	> 50	50	50	12.5	6.25	50	2	12.5	6.25	12.5 (≈ 36.2 µM)	12.5	50	50	54.4	50	25	6.25	3.12	47.8 (≈ 138 µM)	25	Activity [9]: Active; Activity [11]: Dose-dependent-effect; Activity [18]: Dose-dependent-effect; Activity [20]: Active; Activity [22]: Active; survival at 10 mg/kg [24]: 80%; MIC [26]: 25 µg/mL (≈ 72.4 µM); survival at 1.25 mg/kg [27]: 50%
Fc1cc2c(c3ncccc13)OCN(CCc1cccc(Br)c1)C2	> 50	50	50	12.5	25	50	–	250	12.5	–	25	50	50	–	50	25	6.25	6.25	32 (≈ 82.5 µM)	100	–
Fc1ccc(CN2COc3c(cc(Cl)c4cccnc34)C2)c(F)c1	> 50	50	50	25	25	50	–	50	50	–	50	50	50	–	50	> 100	6.25	3.12	34.2 (≈ 98.6 µM)	100	–
Fc1cc2c(c3ncccc13)OCN(Cc1ccc(Cl)cc1)C2	> 50	50	100	3.12	25	50	–	12.5	25	–	12.5	50	50	–	50	25	6.25	6.25	35.6 (≈ 108 µM)	50	–
